Consider 1 molecule from patent publication US12433876B2, “Septin inhibitors for treatment of cancers” (UNIVERSITY OF ROCHESTER, priority 2019, dated 2025).

For one experiment, the target named is septin-6 (Homo sapiens, UniProt Q14141). Kind of experiment: Confocal analysis of septin-6. The experiment is classed as cell-based. Particulars: SKOV-3, 1 μM, 48 hours.
For another experiment, the target named is T1, septin-2 (Homo sapiens, UniProt Q15019).
T1 sequence (Q15019 1-361): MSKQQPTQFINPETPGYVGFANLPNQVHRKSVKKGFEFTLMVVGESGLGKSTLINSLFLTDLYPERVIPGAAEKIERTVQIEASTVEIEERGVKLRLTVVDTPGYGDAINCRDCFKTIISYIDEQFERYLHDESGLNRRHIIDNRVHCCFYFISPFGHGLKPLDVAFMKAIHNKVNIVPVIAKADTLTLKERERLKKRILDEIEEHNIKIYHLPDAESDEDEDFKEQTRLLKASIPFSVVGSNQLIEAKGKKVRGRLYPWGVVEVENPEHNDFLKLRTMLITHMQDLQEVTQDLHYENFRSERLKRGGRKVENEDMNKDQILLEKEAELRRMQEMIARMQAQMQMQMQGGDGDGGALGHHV
Kind of experiment: Immunoblot of septin-2 expression. The conditions noted are these: 48 hours. The experiment is classed as cell-based. In general terms: In western blotting, separated proteins are transferred to a membrane and probed.

In another experiment the test system is PANC-1 cells. Kind of experiment: Live/Dead dye flow cytometry, PANC-1. Type of experiment: cell-based, human. The conditions noted are these: PANC-1, 3 μM. The protocol: Cell Lines, Cell Culture, and Reagents. PANC-1, BXPC-3 and CAPAN-1, SKOV-3, MCF7, MDA-MD-231 cells were obtained from ATCC and maintained in DMEM, RPMI-1640 and IMDM supplemented with 10% fetal calf serum penicillin (100 units/mL), and streptomycin (100 μg/mL) at 37° C. with 5% CO2 in a humidified incubator. JIMT-1 cells were purchased from AddexBio Inc, USA (catalog number: C0006005) and maintained in 10% FBS and antibiotic supplemented DMEM. […] The reaction was monitored using thin-layer chromatography plates with DCM-MeOH or pure ethyl acetate as eluent. Spots were monitored in a UV chamber. […] ICM scores for each compound and their poses were calculated and compared with FCF. […] Cell viability of PANC-1, BXPC-3 and CAPAN-1 pancreatic cancer cells treated with UR214-9 was measured using the Cell Titre96R Aqueous One Solution Cell Proliferation Assay (Promega Corp., catalog number: G3580) following the procedure published earlier. […] The cells were analyzed by a 305 flow cytometer and relative live and dead cell population was calculated by inputting equal number of cells in both vehicle and control group.

septin-6, sequence (Q14141 whole entry): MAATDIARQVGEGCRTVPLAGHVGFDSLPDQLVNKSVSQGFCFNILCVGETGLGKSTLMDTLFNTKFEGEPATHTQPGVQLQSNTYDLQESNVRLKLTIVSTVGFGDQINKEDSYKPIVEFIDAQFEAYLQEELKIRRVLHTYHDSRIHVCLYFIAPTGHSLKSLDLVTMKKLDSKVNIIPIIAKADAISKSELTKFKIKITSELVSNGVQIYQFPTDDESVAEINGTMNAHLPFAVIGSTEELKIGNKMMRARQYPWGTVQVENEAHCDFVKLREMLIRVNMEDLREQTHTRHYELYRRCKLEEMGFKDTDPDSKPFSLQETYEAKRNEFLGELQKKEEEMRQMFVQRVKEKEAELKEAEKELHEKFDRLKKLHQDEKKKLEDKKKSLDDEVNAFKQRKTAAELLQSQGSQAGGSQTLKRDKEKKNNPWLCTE

Consider `O=C(Nc1cc(Cl)nc(Cl)c1)Nc1cccc(SC(F)(F)F)c1F` [UR214-9], for which the “septin-6 (confocal)” value on septin-6 is listed as “decreased upon treatment”. Also, the “septin-2 protein expression levels (western blot)” value at septin-2 (MDA-MB-231, JIMT-1 and MCF-7 cells, 10 and 30 μM) was “does not alter the protein expression levels”. The “septin-2 expression (immunoblot)” value on septin-2 (PANC-1, 1.0 and 10.0 μM) is “unaffected”. Further, the dead-cell population result in the experiment on PANC-1 cells is “over 38%”.
